The nature of data set [1]: Compound was tested for dose required to kill 50 % of ADJ/PC6 mouse plasma cell tumor in a group.
In the next data set the test system is ADJ/PC6. The data set is described as follows: Compound was tested for dose producing 90% reduction in tumor weight, in ADJ/PC6 mouse plasma cell tumor.
A short description of data set [2]: Therapeutic index as the ratio of LD50 to ED50 of the compound.

On to `[2H]C1([2H])CNP(=O)(N(CCCl)CCCl)OC1` (stereo unspecified), for which the LD50 in data set [1] came to 700 mg/kg. The same compound displayed an ED90 in the data set on ADJ/PC6 of 12 mg/kg. In addition, the selectivity ratio in data set [2] was 58.

`O=P1(N(CCCl)CCCl)NCCCO1` (stereo unspecified) [CYCLOPHOSPHAMIDE ANHYDROUS]: in data set [1], the LD50 turned out to be 260 mg/kg. In addition, in the data set on ADJ/PC6, the ED90 worked out at 2.25 mg/kg. Also, in data set [2], the selectivity ratio was found to be 116.

Source of the values: ChEMBL document CHEMBL1121753 (J Med Chem, 1981).
